From patent US20260144783A1, “COMPOSITION FOR PREVENTING OR TREATING PERIPHERAL NEUROPATHY, CONTAINING ISOQUINOLINE DERIVATIVE AS ACTIVE INGREDIENT” (ALTMEDICAL CO., LTD., priority 2022, published 2026) come the findings set out here.

Structures are written as SMILES.

Data set [1] deals with Drosophila larvae. Put plainly: larval size after treatment. The format is in vivo. The following applies: Drosophila larvae, FIG. 8B. On the procedure: In addition, to evaluate whether the compound according to the present invention affects the growth of Drosophila, the size of larvae was measured after treatment with paclitaxel and CD1-012.
Data set [2] relates to chemotherapy-induced peripheral neuropathy mouse model. Put plainly: nerve distribution in the footpad (IENFs), peripheral neuropathy mouse model. Type of data set: in vivo. The following applies: mice, paclitaxel alone.
Data set [3] has the same test system. Put plainly: vonfrey hair test, peripheral neuropathy mouse model. Type of data set: in vivo. The following applies: mice, paclitaxel alone. On the procedure: To more clearly verify the therapeutic effect of the isoquinoline derivative of the present invention on peripheral neuropathy, particularly chemotherapy-induced peripheral neuropathy, experiments were conducted using a peripheral neuropathy mouse model. Specifically, peripheral neuropathy was induced in mice by administration of a chemotherapeutic agent (paclitaxel), and CD1-012 was co-administered at a dose of 10 mg/kg or 20 mg/kg. Sensitivity to pain was then analyzed using the vonfrey hair test.

Data set [4] relates to C4da sensory neurons (ppk1a>CD4-tdTom Drosophila). Put plainly: morphology of dendritic branches of C4da sensory neurons. The format is in vivo. The following applies: paclitaxel treatment, C4da sensory neurons. An excerpt:
To analyze the morphological changes in the dendritic branches of C4da sensory neurons, transgenic Drosophila expressing the fluorescent protein CD4-tdTomato specifically in C4da neurons (ppk^1a>CD4-tdTom) was generated. After treatment of the transgenic flies with paclitaxel and CD1-012, morphological changes in the dendritic branches of C4da sensory neurons were examined. As a result, treatment with paclitaxel increased the total dendrite length and the number of dendritic branches by 22% and 33%, respectively, confirming that morphological changes in the sensory neurons were induced.

The test system of data set [5] is third-instar larvae of Drosophila (w1118). Type of data set: in vivo. The following applies: paclitaxel 20 μM 48 hours alone. On the procedure: To this end, thermal sensitivity was measured in a Drosophila model of paclitaxel-induced peripheral neuropathy. […] As a result, after treatment with paclitaxel, hyperalgesia was observed, as indicated by a 35% reduction in withdrawal latency from 6.9 seconds to 4.5 seconds (FIG. 8A). Subsequently, to confirm the therapeutic effect of CD1-012 on peripheral neuropathy, Drosophila were treated with CD1-012 at a concentration of 1 mM along with paclitaxel (20 μM).
Subsequently, to understand the molecular mechanism underlying the therapeutic effect of CD1-012 on chemotherapy-induced peripheral neuropathy, the therapeutic effect of CD1-012 was examined after suppressing the expression of ULK1 or Rap9, which are essential genes in the recently identified alternative mitophagy pathway. To this end, a heat probe assay was performed using a 40° C. thermal probe after co-treating paclitaxel (20 μM) and CD1-012 (1 mM) in Drosophila expressing shULK1 or shRap9 in C4da sensory neurons, as well as in control Drosophila (wild-type). As a result, in the control group, the peripheral neuropathy symptoms (reduction in withdrawal latency) induced by paclitaxel were recovered by CD1-012 treatment.

Data set [6] deals with BEAS-2B cell line. As to the kind of experiment: mitophagy activity, mt-Keima fluorescent protein (FACS, confocal microscope, mito-YFP). Type of data set: cell-based, human. The following applies: BEAS-2B mt-Keima, FIG. 5. As for the experimental part: To analyze the mitophagy-promoting activity effect of the CD1-012 synthesized in the Example 1, the BEAS-2B cell line, which is a human normal lung cell line, was induced to express the mt-Keima fluorescent protein. Following this, the CD1-012 (15 μM) and the compound of Comparative Example 1, CCCP (10 μM), were treated for 24 hours. After the treatment, the mitophagy activity of each sample was measured, and the results were represented in FIGS. 1A to IC.
Specifically, FIG. 1A represents the analysis results using flow cytometry (FACS) (treatment of CD1-012 at 15 µM for 24 hours), FIG. 1B represents the analysis results using a confocal microscope (treatment of CD1-012 at 15 μM for 18 hours), and FIG. 1C represents the measurement results of the quantitative changes in the mitochondria using a fluorescent protein, mito-YFP, which includes a targeting sequence to transport protein to the mitochondria (treatment of CD1-012 at 20 μM for 24 hours).
It was confirmed whether CD1-012 synthesized in Example 1 promotes mitophagy activity in a concentration- and time-dependent manner. To this end, the CD1-012 was treated at various concentrations or at a fixed concentration (15 μM) for different treatment durations in the BEAS-2B cell line expressing mt-Keima, and mitophagy activity was measured using a flow cytometer.
It was confirmed whether CD1-012 synthesized in Example 1 specifically increases only mitophagy activity. To this end, the BEAS-2B cell line expressing mt-Keima was treated with CD1-012 (15 μM) or Comparative Example 1 (CCCP, 10 μM) for 18 hours, and mitophagy activity was analyzed using a confocal microscope. Additionally, to measure autophagy activity, the BEAS-2B cell line expressing Keima fluorescent protein was incubated in Hanks' balanced salt solution (HBSS) for 3 hours to induce a starvation condition (starv.), and the results were compared with samples treated with CD1-012 (15 μM) for 18 hours using a confocal microscope.
To this end, the human normal lung cell line BEAS-2B, expressing mt-Keima fluorescent protein, was treated with CD1-012, Comparative Example 2 (palmatine), or Comparative Example 3 (berberine) at various concentrations, and the mitophagy-inducing activity of each sample was compared.

Data set [7] deals with mitochondrial reactive oxygen species (ROS). As to the kind of experiment: MitoSOX assay. The format is cell-based. The following applies: CD1-012 10 μM or 15 μM, CCCP 10 μM, 24 hours. As for the experimental part:
(§1) It was confirmed whether the isoquinoline derivative according to the present invention induces mitochondrial dysfunction, similar to CCCP. To this end, the CD1-012 (10 μM or 15 μM) and CCCP (10 μM) were treated for 24 hours, and the mitochondrial membrane potential and mitochondrial reactive oxygen species (ROS) levels in each sample were analyzed. Mitochondrial membrane potential was analyzed using the TMRM (tetramethylrhodamine methyl ester) assay, and mitochondrial ROS levels were analyzed using the MitoSOX assay.

The test system of data set [8] is mitochondrial membrane potential. As to the kind of experiment: TMRM assay. The following applies: CD1-012 10 μM or 15 μM, CCCP 10 μM, 24 hours. Type of data set: cell-based. On the procedure: as §1
Data set [9] deals with BEAS-2B cell line, in which PINK1 was knocked down (shPINK1). Put plainly: mitophagy activity in PINK1 knockdown cell line (FACS). The format is cell-based, human. The following applies: CCCP 10 μM or CD1-012 15 μM, 18 hours. On the procedure:
In this example, it was confirmed whether the mitophagy activation function of the isoquinoline derivative according to the present invention is dependent on the PINK1-Parkin pathway. To this end, after a BEAS-2B cell line, in which PINK1 was knocked down using short hairpin RNA (shRNA), was treated with CCCP (10 μM) of Comparative Example 1 or CD1-012 (15 μM) for 18 hours, the mitophagy activity of each sample was analyzed using flow cytometry (FACS).

`CC(=O)O[C@H]1C(=O)[C@@]2(C)[C@H]([C@H](OC(=O)c3ccccc3)[C@]3(O)C[C@H](OC(=O)[C@H](O)[C@@H](NC(=O)c4ccccc4)c4ccccc4)C(C)=C1C3(C)C)[C@]1(OC(C)=O)CO[C@@H]1C[C@@H]2O` [paclitaxel, reference compound]: the “reduction in larval size compared to the untreated control group” value in data set [1] is roughly 28%. Besides, the “number of peripheral nerves (intraepidermal nerve fibers: IENFs) in the footpad” value in data set [2] is reported as “reduced”. Also, the pain sensitivity entry in data set [3] was “increased”. In [4], the “increase in number of dendritic branches” value worked out at 33% and the “increase in total dendrite length” value is 22%. For the same molecule, in data set [5] (from 6.9 seconds to 4.5 seconds), the “reduction in withdrawal latency” value stood at 35%. This molecule registered a withdrawal latency in [5] (heat probe 40° C., untreated 6.9 seconds) of 4.5 s.

Consider `COc1ccc2cc3[n+](cc2c1OC)CCc1cc2c(cc1-3)OCO2` [berberine, Berberine, reference compound], for which the “concentration at which mitophagy activity reached its maximum (comparable level)” value in data set [6] came out at 80 µM.

For the molecule `COc1cc2c(cc1OC)-c1cc3ccc(OC)c(OC)c3c[n+]1CC2` [palmatine, Palmatine, reference compound], in data set [6], the “concentration at which mitophagy activity reached its maximum (comparable level)” value was determined as 400 µM.

For `N#CC(C#N)=NNc1cccc(Cl)c1` [CCCP, Carbonyl cyanide 3-chlorophenylhydrazone, reference compound], the “mitochondrial ROS levels” value in data set [7] is “significantly increased”. The mitochondrial membrane potential result in data set [8] is “significantly reduced”. Also, the “mitophagy activation in PINK1 knockdown cell line (shPINK1) compared to control” value in data set [9] is listed as “significantly decreased”.
